Test system: mice
Test: In vivo delivery of FLuc-mRNA lipid nanoparticles in mice, in vivo imaging (IVIS)
Details: for IVIS / % of organ targeting: Fluc-mRNA LNP, formulation, molar ratio and N/P as in the table
Method in brief: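 Mice (n=3) received about 75 μL FLuc-mRNA LNP per mouse intramuscularly (rectus femoris), intravenously (tail vein), intraperitoneally or subcutaneously (back). After injection, D-luciferin (200 μL, 15 mg/mL) was given i.p. 10-15 min before IVIS imaging.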

Structure (SMILES) | IVIS (route IM, organ not given) | IVIS (route IV, organ: body) | % of organ targeting (route IV, organ: liver) [%] | IVIS (route IV, organ: liver) | % of organ targeting (route IV, organ: lung) [%] | IVIS (route IV, organ: lung) | % of organ targeting (route IV, organ: spleen) [%] | IVIS (route IV, organ: spleen) | organ targeting specificity (spleen or lung), in words (Table 3, Fluc-mRNA, various formulations) | IVIS (route IV, organ not given)
CCCCCCCCCCOC(=O)CCCNC(=O)C(O)CN(CCN(C)CCN(CC(O)C(=O)NCCCC(=O)OCCCCCCCCCC)CC(O)C(=O)NCCCC(=O)OCCCCCCCCCC)CC(O)C(=O)NCCCC(=O)OCCCCCCCCCC (stereo not drawn) [Compound L0386] | 1.91E+05 | 6.49E+07 | 1.32 | 2.54E+06 | 96.51 | 1.86E+08 | 2.17 | 4.18E+06 | more selective towards the lung | –
CCCCCCCCCCOC(=O)CCCNC(=O)C(O)CN(CCCN(CC(O)C(=O)NCCCC(=O)OCCCCCCCCCC)CC(O)C(=O)NCCCC(=O)OCCCCCCCCCC)CCCN(CC(O)C(=O)NCCCC(=O)OCCCCCCCCCC)CC(O)C(=O)NCCCC(=O)OCCCCCCCCCC (stereo not drawn) [Compound L0387] | 1.15E+05 | – | – | – | – | – | – | – | – | 5.23E+05
CCCCCCCCCCCCNC(=O)C(CN(CCCN(C)CCCN(CC(OC(C)=O)C(=O)NCCCCCCCCCCCC)CC(OC(C)=O)C(=O)NCCCCCCCCCCCC)CC(OC(C)=O)C(=O)NCCCCCCCCCCCC)OC(C)=O (stereo not drawn) [Compound L0388] | 1.49E+07 | 1.49E+08 | 22.33 | 2.37E+07 | 1.64 | 1.74E+06 | 76.03 | 8.08E+07 | – | –
CCCCCCCCCCCCNC(=O)C(CN(CCCN(C)CCCN(CC(OC(=O)CCCCC)C(=O)NCCCCCCCCCCCC)CC(OC(=O)CCCCC)C(=O)NCCCCCCCCCCCC)CC(OC(=O)CCCCC)C(=O)NCCCCCCCCCCCC)OC(=O)CCCCC (stereo not drawn) [Compound L0389] | 1.99E+04 | – | – | – | – | – | – | – | – | 2.50E+05
